Measured values: patent US7045533B2, “Naphthalene derivatives” (Novartis AG, priority 2000, dated 2006)

What was measured:
Wistar rats = assay: Test II: Neuropathic Pain Model (partial ligation of the sciatic nerve, mechanical hyperalgesia); type: in vivo; conditions: p.o.; dose necessary to produce 50% reversal of hyperalgesia; rat
Excerpt: Test II: Neuropathic Pain Model
Hyperalgesia is examined in the model of neuropathic pain Induced by partial ligation of the sciatic nerve as described by Seltzer et al. (1990). Briefly, Wistar rats (120–140 g) are anaesthetised, the left sciatic nerve exposed at mid-thigh level through a small incision and ⅓ to ½ of the nerve thickness tightly ligated within a 7.0 silk suture. The wound is closed with a single muscle suture and skin clips and dusted with Aureomycin antibiotic powder. The animals are allowed to recover and used 12–15 days following surgery.
Mechanical hyperalgesia is assessed by measuring paw withdrawal thresholds to an increasing pressure stimulus placed onto the dorsal surface of the paw using an analgesymeter (Ugo-Basile, Milan) with a cut-off of 250 g. Withdrawal thresholds are measured on both the ipsilateral (ligated) and contralateral (unligated) paw prior to (predose) and then up to 6 h following drug or vehicle administration. Data are expressed as withdrawal threshold (g) and percentage reversal of hyperalgesia calculated according to the following formula: […]
Potency is expressed as D50 value, i.e. the dose of compound necessary to produce 50% reversal of hyperalgesia.

Compound	melting point	D50 value in the neuropathic pain model (Wistar rats)
CCCCCOc1ccc([S+]([O-])c2cccc3ccccc23)c2ccccc12 (centres unmarked)	88 to 91 °C	
CCCCCOc1ccc(C(=O)c2cccc3ccccc23)c2ccccc12 [Example 1, naphthalen-1-yl-(4-pentyloxy-naphthalen-1-yl)-methanone]		0.18 mg/kg
CCCCCOc1ccc(S(=O)(=O)N2CCCc3ccccc32)c2ccccc12	78 to 80 °C	
CCCCCOc1ccc(S(=O)(=O)c2cccc3ccccc23)c2ccccc12	143 to 144 °C	
CCCCCOc1ccc(C(=O)Oc2cccc3ccccc23)c2ccccc12	95 to 100 °C	
